Results taken from patent US9273058B2 (BRISTOL-MYERS SQUIBB COMPANY, priority 2013, dated 2016).
pIC50: −log10 of the molar value. Where two headings read alike, the source gives them in different places.

Legend:
CK1ε = CK1ε (Homo sapiens, UniProt P49674); experiment: CK1ε kinase assay (Caliper LabChip electrophoretic separation of fluoresceinated peptide substrate and product); type: biochemical; settings: 200 pM CK1ε, 50 μM ATP, 1.5 μM peptide, 22 hours at room temperature
Outline: (§1)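 Incubated for twenty-two hours at ambient temperature, then quenched with EDTA and analyzed by electrophoretic separation of unphosphorylated and phosphorylated peptide.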

CK1δ = CK1δ (Homo sapiens, UniProt P48730); experiment: CK1δ kinase assay (Caliper LabChip electrophoretic separation of fluoresceinated peptide substrate and product); type: biochemical; settings: 200 pM CK1δ, 50 μM ATP, 1.5 μM peptide, 22 hours at room temperature
Outline: as §1

Chain of CK1ε (P49674 whole entry): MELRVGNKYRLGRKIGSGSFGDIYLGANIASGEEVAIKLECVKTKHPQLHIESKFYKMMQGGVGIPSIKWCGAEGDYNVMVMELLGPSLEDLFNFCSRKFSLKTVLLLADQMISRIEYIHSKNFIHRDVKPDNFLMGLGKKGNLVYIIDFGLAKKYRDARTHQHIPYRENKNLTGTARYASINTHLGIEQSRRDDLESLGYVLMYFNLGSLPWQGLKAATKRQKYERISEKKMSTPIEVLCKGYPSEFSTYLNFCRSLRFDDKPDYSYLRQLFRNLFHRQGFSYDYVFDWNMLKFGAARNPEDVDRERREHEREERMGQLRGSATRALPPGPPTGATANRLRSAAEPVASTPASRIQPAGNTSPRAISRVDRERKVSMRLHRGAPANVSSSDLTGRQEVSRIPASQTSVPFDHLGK
Chain of CK1δ (P48730 whole entry): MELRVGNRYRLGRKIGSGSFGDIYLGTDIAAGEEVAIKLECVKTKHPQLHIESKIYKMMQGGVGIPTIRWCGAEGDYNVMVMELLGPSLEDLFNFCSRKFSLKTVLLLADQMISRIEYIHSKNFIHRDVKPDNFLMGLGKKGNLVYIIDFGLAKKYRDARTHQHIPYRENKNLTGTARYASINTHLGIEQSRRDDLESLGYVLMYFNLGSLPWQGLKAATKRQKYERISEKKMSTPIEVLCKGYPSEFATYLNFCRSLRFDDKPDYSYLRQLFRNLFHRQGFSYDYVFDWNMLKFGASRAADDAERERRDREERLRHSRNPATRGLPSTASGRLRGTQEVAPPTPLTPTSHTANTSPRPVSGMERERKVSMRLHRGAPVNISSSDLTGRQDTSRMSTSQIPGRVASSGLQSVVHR

Structure (SMILES)	pIC50 (CK1ε; read-out: CK1ε IC50 range)	pIC50 (CK1δ; read-out: CK1δ IC50 range)	pIC50 (CK1ε; read-out: CK1ε)	pIC50 (CK1δ; read-out: CK1δ)
CC1(NC(=O)N2CCn3nc(-c4ccc(F)c(Cl)c4)c(C(N)=O)c3C2)CC2(C1)CC2(F)F (single isomer, unassigned) [Compound 327, 2-(3-Chloro-4-fluorophenyl)-N5-(1,1-difluoro-5-methylspiro[2.3]hexan-5-yl)-6,7-dihydropyrazolo[1,5-a]pyrazine-3,5(4H)-dicarboxamide]	8.00 to 11.00	8.00 to 11.00	–	–
CC1(NC(=O)N2Cc3c(C(N)=O)c(-c4ccc(F)c(Cl)c4)nn3CC2C2CC2)CC(F)(F)C1 (single isomer, unassigned) [Compound 349, 2-(3-Chloro-4-fluorophenyl)-6-cyclopropyl-N^5-(3,3-difluoro-1-methylcyclobutyl)-6,7-dihydropyrazolo[1,5-a]pyrazine-3,5(4H)-dicarboxamide]	7.00 to 8.00	7.00 to 8.00	7.70	7.47
CC(C)(C)NC(=O)N1CCn2nc(-c3cccnc3)c(C(N)=O)c2C1 [Compound 111, N^5-(tert-Butyl)-2-(pyridin-3-yl)-6,7-dihydropyrazolo[1,5-a]pyrazine-3,5(4H)-dicarboxamide]	5.70 to 7.00	5.70 to 7.00	–	–
CC1Cn2nc(-c3ccc(F)c(Cl)c3)c(C(N)=O)c2CN1C(=O)NC(C)(C)C (single isomer, unassigned) [Compound 340, N^5-(tert-Butyl)-2-(3-chloro-4-fluorophenyl)-6-methyl-6,7-dihydropyrazolo[1,5-a]pyrazine-3,5(4H)-dicarboxamide]	7.00 to 8.00	8.00 to 11.00	–	–
NC(=O)c1c(-c2cccc(F)c2)nn2c1CN(C(=O)Nc1cc(F)ccc1F)CC2 [Compound 26, N^5-(2,5-Difluorophenyl)-2-(3-fluorophenyl)-6,7-dihydropyrazolo[1,5-a]pyrazine-3,5(4H)-dicarboxamide]	7.00 to 8.00	7.00 to 8.00	–	–
NC(=O)c1c(-c2ccc(F)c(Cl)c2)nn2c1CN(C(=O)NC13CCC(CO)(CC1)CC3)CC2 [Compound A55, 2-(3-Chloro-4-fluorophenyl)-N^5-(4-(hydroxymethyl)bicyclo[2.2.2]octan-1-yl)-6,7-dihydropyrazolo[1,5-a]pyrazine-3,5(4H)-dicarboxamide]	8.00 to 11.00	8.00 to 11.00	–	–
CC(C)C1CN(C(=O)NC(C)(C)C)Cc2c(C(N)=O)c(-c3ccc(F)c(Cl)c3)nn21 (single isomer, unassigned) [Compound A119, N^5-(tert-Butyl)-2-(3-chloro-4-fluorophenyl)-7-isopropyl-6,7-dihydropyrazolo[1,5-a]pyrazine-3,5(4H)-dicarboxamide]	7.00 to 8.00	7.00 to 8.00	–	–
CC1(NC(=O)N2CCn3nc(-c4ccc(F)c(Cl)c4)c(C(N)=O)c3C2)CC2(C1)CC2(F)F (single isomer, unassigned) [Compound 326, 2-(3-Chloro-4-fluorophenyl)-N5-(1,1-difluoro-5-methylspiro[2.3]hexan-5-yl)-6,7-dihydropyrazolo[1,5-a]pyrazine-3,5(4H)-dicarboxamide]	8.00 to 11.00	8.00 to 11.00	–	–
CC1CN(C(=O)NC2CC(F)(F)C2)Cc2c(C(N)=O)c(-c3cccc(Cl)c3)nn21 (single isomer, unassigned) [Compound A110, 2-(3-Chlorophenyl)-N^5-(3,3-difluorocyclobutyl)-7-methyl-6,7-dihydropyrazolo[1,5-a]pyrazine-3,5(4H)-dicarboxamide]	8.00 to 11.00	8.00 to 11.00	–	–
N#Cc1ccc(NC(=O)N2CCn3nc(-c4cccc(Cl)c4)c(C(N)=O)c3C2)cc1C(F)(F)F [Compound 159, 2-(3-Chlorophenyl)-N^5-(4-cyano-3-(trifluoromethyl)phenyl)-6,7-dihydropyrazolo [1,5-a]pyrazine-3,5(4H)-dicarboxamide]	8.00 to 11.00	8.00 to 11.00	–	–
CC(C)(C)NC(=O)N1CCn2nc(-c3cncnc3)c(C(N)=O)c2C1 [Compound 142, N^5-(tert-Butyl)-2-(pyrimidin-5-yl)-6,7-dihydropyrazolo [1,5-a]pyrazine-3,5(4H)-dicarboxamide]	5.70 to 7.00	5.70 to 7.00	–	6.05
NC(=O)c1c(-c2ccc(Cl)c(Cl)c2)nn2c1CN(C(=O)NC1(C(F)F)CC(F)(F)C1)CC2 [Compound 305, 2-(3,4-Dichlorophenyl)-N^5-(1-(difluoromethyl)-3,3-difluorocyclobutyl)-6,7-dihydropyrazolo[1,5-a] pyrazine-3,5(4H)-dicarboxamide]	8.00 to 11.00	8.00 to 11.00	–	–
C[C@@]12C[C@H]3C[C@@](Cl)(C1)C[C@](NC(=O)N1CCn4nc(-c5ccc(F)c(Cl)c5)c(C(N)=O)c4C1)(C3)C2 [Compound A69, 2-(3-Chloro-4-fluorophenyl)-N^5-((1S,3R,5S,7R)-3-chloro-5-methyladamantan-1-yl)-6,7-dihydropyrazolo[1,5-a]pyrazine-3,5(4H)-dicarboxamide]	8.00 to 11.00	8.00 to 11.00	–	–
NC(=O)c1c(-c2ccc(F)c(Cl)c2)nn2c1CN(C(=O)NC1CN(CC(F)(F)F)C1)CC2 [Compound 339, 2-(3-Chloro-4-fluorophenyl)-N^5-(1-(2,2,2-trifluoroethyl)azetidin-3-yl)-6,7-dihydropyrazolo[1,5-a]pyrazine-3,5(4H)-dicarboxamide]	8.00 to 11.00	8.00 to 11.00	–	–
CS(=O)(=O)c1cccc(NC(=O)N2CCn3nc(-c4cccc(F)c4)c(C(N)=O)c3C2)c1 [Compound 93, 2-(3-Fluorophenyl)-N^5-(3-(methylsulfonyl)phenyl)-6,7-dihydropyrazolo[1,5-a]pyrazine-3,5(4H)-dicarboxamide]	8.00 to 11.00	8.00 to 11.00	–	–
NC(=O)c1c(-c2ccc(F)c(Cl)c2)nn2c1CN(C(=O)NC1CCC(F)(F)CC1)C[C@H]2C(F)F [Compound A13, (S)-2-(3-Chloro-4-fluorophenyl)-N^5-(4,4-difluorocyclohexyl)-7-(difluoromethyl)-6,7-dihydropyrazolo[1,5-a] pyrazine-3,5(4H)-dicarboxamide]	8.00 to 11.00	8.00 to 11.00	–	–
CC(C)(C)NC(=O)N1CCn2nc(-c3cccc4cnccc34)c(C(N)=O)c2C1 [Compound 134, N^5-(tert-Butyl)-2-(isoquinolin-5-yl)-6,7-dihydropyrazolo[1,5-a] pyrazine-3,5(4H)-dicarboxamide]	5.70 to 7.00	5.70 to 7.00	–	–
CC1CN(C(=O)NC(C)(C)C)Cc2c(C(N)=O)c(-c3cccc(F)c3)nn21 (single isomer, unassigned) [Compound A109, N^5-(tert-Butyl)-2-(3-fluorophenyl)-7-methyl-6,7-dihydropyrazolo[1,5-a]pyrazine-3,5(4H)-dicarboxamide]	8.00 to 11.00	8.00 to 11.00	–	–
NC(=O)c1c(-c2cccc(F)c2)nn2c1CN(C(=O)NC1CCCCC1)CC2 [Compound 6, N^5-Cyclohexyl-2-(3-fluorophenyl)-6,7-dihydropyrazolo[1,5-a]pyrazine-3,5(4H)-dicarboxamide]	8.00 to 11.00	8.00 to 11.00	8.14	8.62
CC1(CNC(=O)N2CCn3nc(-c4cccc(Cl)c4)c(C(N)=O)c3C2)CC(F)(F)C1 [Compound 230, 2-(3-Chlorophenyl)-N^5-((3,3-difluoro-1-methylcyclobutyl)methyl)-6,7-dihydropyrazolo[1,5-a] pyrazine-3,5(4H)-dicarboxamide]	8.00 to 11.00	8.00 to 11.00	–	–
NC(=O)c1c(-c2ccc(Cl)c(Cl)c2)nn2c1CN(C(=O)N[C@H]1C[C@@H](OC(F)(F)F)C1)CC2 [Compound 263, 2-(3,4-Dichlorophenyl)-N^5-((1r,3r)-3-(trifluoromethoxy)cyclobutyl)-6,7-dihydropyrazolo[1,5-a] pyrazine-3,5(4H)-dicarboxamide]	8.00 to 11.00	8.00 to 11.00	–	–
CC(C)(C)NC(=O)N1CCn2nc(-c3cccc(C(N)=O)c3)c(C(N)=O)c2C1 [Compound 123, N^5-(tert-Butyl)-2-(3-carbamoylphenyl)-6,7-dihydropyrazolo[1,5-a] pyrazine-3,5(4H)-dicarboxamide]	5.70 to 7.00	7.00 to 8.00	–	–
CC(C)(C)NC(=O)N1Cc2c(C(N)=O)c(-c3ccc(Cl)c(Cl)c3)nn2C(C(F)F)C1 (centres unmarked) [Compound A32, N^5-(tert-Butyl)-2-(3,4-dichlorophenyl)-7-(difluoromethyl)-6,7-dihydropyrazolo[1,5-a]pyrazine-3,5(4H)-dicarboxamide]	8.00 to 11.00	8.00 to 11.00	–	–
NC(=O)c1c(-c2ccc(Cl)c(Cl)c2)nn2c1CN(C(=O)NCC1CCC(F)(F)CC1)CC2 [Compound 206, 2-(3,4-Dichlorophenyl)-N^5-((4,4-difluorocyclohexyl)methyl)-6,7-dihydropyrazolo[1,5-a] pyrazine-3,5(4H)-dicarboxamide]	8.00 to 11.00	8.00 to 11.00	–	–
CC(C)(C)NC(=O)N1Cc2c(C(N)=O)c(-c3cccc(Cl)c3)nn2C(CF)C1 (centres unmarked) [Compound A5, N^5-(tert-butyl)-2-(3-chlorophenyl)-7-(fluoromethyl)-6,7-dihydropyrazolo[1,5-a] pyrazine-3,5(4H)-dicarboxamide]	8.00 to 11.00	8.00 to 11.00	–	–
N#Cc1ccc(C2(NC(=O)N3CCn4nc(-c5cccc(Cl)c5)c(C(N)=O)c4C3)CC(F)(F)C2)cc1 [Compound 315, 2-(3-Chlorophenyl)-N^5-(1-(4-cyanophenyl)-3,3-difluorocyclobutyl)-6,7-dihydropyrazolo[1,5-a]pyrazine-3,5(4H)-dicarboxamide]	8.00 to 11.00	8.00 to 11.00	–	–
CC1(NC(=O)N2Cc3c(C(N)=O)c(-c4ccc(F)c(Cl)c4)nn3CC2C2CC2)CC(F)(F)C1 (single isomer, unassigned) [Compound 348, 2-(3-Chloro-4-fluorophenyl)-6-cyclopropyl-N^5-(3,3-difluoro-1-methylcyclobutyl)-6,7-dihydropyrazolo[1,5-a]pyrazine-3,5(4H)-dicarboxamide]	7.00 to 8.00	5.70 to 7.00	–	–
